Test results taken from ChEMBL document CHEMBL1201862, “PubChem BioAssay data set” (2004).
Active and inactive are the calls of the source.

Tests used:
Protein Tat = Protein Tat (Human immunodeficiency virus type 1 group M subtype B (isolate HXB2)(HIV-1), UniProt P04608); assay type: functional;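 note: tat binding to TAR RNA read out by fluorescence polarization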
cells [1] = assay type: functional, cell-based
cells [2] = assay type: functional, cell-based; remark: listed apart in the source
NADPH oxidase 1 = target: T1, NADPH oxidase 1 (Homo sapiens, UniProt Q9Y5S8); assay: Late-stage luminescence-based cell-based dose response assay to identify inhibitors of NADPH oxidase 1 (NOX1): Synthesized analogs.; assay type: functional
T1 sequence (Q9Y5S8 whole entry): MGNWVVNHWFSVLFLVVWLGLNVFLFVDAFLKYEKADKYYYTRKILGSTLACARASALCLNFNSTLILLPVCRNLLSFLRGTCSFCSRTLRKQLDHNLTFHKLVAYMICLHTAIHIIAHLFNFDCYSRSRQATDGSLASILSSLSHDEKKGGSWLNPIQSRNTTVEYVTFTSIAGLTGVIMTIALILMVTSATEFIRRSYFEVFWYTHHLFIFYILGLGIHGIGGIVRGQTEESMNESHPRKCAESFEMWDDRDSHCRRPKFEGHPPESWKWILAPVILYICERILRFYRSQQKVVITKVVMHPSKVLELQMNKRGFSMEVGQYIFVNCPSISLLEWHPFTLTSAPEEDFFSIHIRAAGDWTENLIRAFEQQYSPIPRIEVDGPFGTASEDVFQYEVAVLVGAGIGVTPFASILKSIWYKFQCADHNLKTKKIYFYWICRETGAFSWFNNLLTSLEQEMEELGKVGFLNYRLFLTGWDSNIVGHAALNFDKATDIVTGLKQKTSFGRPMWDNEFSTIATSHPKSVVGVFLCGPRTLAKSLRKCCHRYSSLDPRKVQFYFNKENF

[3] = target: Mitogen-activated protein kinase 10 (Homo sapiens, UniProt P53779); assay: Dose response biochemical screening assay for inhibitors of c-Jun N-Terminal Kinase 3 (JNK3). [Related pubchem assays: 746 ]
Mitogen-activated protein kinase 10, sequence (P53779 whole entry): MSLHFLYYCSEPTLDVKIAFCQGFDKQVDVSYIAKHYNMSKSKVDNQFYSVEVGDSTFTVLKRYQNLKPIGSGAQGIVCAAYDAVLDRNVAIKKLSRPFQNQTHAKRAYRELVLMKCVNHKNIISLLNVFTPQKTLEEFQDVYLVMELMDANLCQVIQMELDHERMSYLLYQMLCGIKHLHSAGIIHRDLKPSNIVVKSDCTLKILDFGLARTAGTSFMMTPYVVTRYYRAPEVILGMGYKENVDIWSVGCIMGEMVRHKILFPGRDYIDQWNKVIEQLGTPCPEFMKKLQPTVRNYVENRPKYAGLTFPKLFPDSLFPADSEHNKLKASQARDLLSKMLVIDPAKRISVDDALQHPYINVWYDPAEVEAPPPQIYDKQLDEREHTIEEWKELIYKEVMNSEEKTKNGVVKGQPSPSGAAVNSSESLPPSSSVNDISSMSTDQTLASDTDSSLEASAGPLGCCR

cells [4] = assay type: functional
[5] = THP-1 cell cytotoxicity, dose response, cytotoxicity control for non-replicating M. tuberculosis project (AID 489025); assay type: functional
[6] = inhibitors of intracellular T. cruzi replication, confirmation, NIH3T3 host cells, beta-gal luminescence (AID 2044); assay type: functional, cell-based;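 note: intracellular parasites grown in NIH/3T3 mouse fibroblasts as host cells; luminescent beta-galactosidase reporter signal from transgenic T. cruzi replicating inside host cells; inhibitors lower the luminescence signal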
[7] = microbe, parasite or virus in culture; assay type: functional; conditions: Mycobacterium tuberculosis
[8] = target: T2, Heat shock factor protein 1 (Mus musculus, UniProt P38532); assay: inhibition of MG132-induced HSE-luciferase signal, confirmation, cell-based, NIH3T3, luminescence, dose retest (AID 2382); assay type: functional;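 note: NIH3T3 fibroblasts with HSF1-driven luciferase reporter stressed by proteasome inhibitor MG132; luminescence from HSF1-driven luciferase expression after 8 hours of MG132 stress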
T2 sequence (P38532 whole entry): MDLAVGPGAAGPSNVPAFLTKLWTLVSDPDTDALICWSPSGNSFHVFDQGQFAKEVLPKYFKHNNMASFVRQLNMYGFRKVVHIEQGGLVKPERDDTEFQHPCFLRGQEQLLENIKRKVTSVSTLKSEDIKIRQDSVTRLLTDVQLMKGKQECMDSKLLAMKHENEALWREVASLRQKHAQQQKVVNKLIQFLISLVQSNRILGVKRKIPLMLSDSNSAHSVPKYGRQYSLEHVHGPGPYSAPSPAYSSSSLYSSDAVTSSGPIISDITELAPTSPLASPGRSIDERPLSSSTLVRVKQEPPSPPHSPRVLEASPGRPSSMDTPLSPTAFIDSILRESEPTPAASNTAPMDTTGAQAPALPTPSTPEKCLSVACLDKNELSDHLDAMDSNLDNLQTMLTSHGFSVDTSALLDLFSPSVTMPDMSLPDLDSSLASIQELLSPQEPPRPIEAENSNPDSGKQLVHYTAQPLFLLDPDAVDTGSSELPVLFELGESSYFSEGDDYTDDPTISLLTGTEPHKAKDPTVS

[9] = target: Heat shock protein HSP 90-alpha (Homo sapiens, UniProt P07900); assay: Luminescence-based dose response biochemical high throughput screening assay for inhibitors of the Heat Shock Protein 90 (HSP90). [Related pubchem assays: 1831 (Summary AID.), 1846 (Confirmation screen.), 1789 (Primary screen.)]
[10] = cytotoxicity toward NIH3T3 fibroblasts, dose response, counter-screen, cell-based, ATP luminescence, mouse fibroblasts (AID 2010); assay type: functional;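 note: cells exposed to compound for about 90 hours before reading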
[11] = inhibitors of Vif binding to APOBEC3G peptide, primary screen, biochemical, TR-FRET, GST-Vif 1-94, biotin-A3G peptide, dose response retest (AID 1117319); assay type: functional;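 note: TR-FRET signal of purified GST-Vif binding a biotinylated A3G peptide; inhibitors lower the FRET signal by blocking Vif and A3G binding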
[12] = Vero cell cytotoxicity, dose response, cytotoxicity control for Vif-APOBEC3G degradation inhibitor project, Vero cells (AID 1117358); assay type: functional; conditions: Human immunodeficiency virus 1, Vero
Protein RecA = target: T3, Protein RecA (Mycobacterium tuberculosis, UniProt P9WHJ3); assay: Fluorescence Cell-Free Homogeneous Dose Retest to Identify Inhibitors of RecA-Intein Splicing Activity. [Related pubchem assays (depositor defined):AID2097, AID2223, AID489010, AID492950]; assay type: functional
T3 sequence (P9WHJ3 whole entry): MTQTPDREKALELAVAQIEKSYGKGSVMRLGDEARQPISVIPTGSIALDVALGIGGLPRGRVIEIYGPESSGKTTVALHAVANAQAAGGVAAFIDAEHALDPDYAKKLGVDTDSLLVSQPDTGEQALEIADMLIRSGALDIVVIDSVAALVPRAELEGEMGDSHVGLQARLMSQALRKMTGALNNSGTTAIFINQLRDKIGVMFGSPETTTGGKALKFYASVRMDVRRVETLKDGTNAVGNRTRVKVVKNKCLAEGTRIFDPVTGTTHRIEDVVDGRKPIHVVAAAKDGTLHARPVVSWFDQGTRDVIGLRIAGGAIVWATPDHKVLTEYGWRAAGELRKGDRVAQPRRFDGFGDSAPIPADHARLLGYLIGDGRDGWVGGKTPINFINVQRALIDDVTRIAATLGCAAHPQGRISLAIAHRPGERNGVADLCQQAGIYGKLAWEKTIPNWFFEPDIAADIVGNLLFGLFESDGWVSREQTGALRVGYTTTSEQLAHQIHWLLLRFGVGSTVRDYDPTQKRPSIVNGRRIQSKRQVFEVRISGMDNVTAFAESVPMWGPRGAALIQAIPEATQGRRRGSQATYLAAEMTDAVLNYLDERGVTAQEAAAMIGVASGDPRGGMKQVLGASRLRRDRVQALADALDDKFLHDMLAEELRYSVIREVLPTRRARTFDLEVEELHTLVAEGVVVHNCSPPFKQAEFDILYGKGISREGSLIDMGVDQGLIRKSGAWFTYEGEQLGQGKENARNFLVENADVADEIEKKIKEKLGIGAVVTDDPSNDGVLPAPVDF

[13] = target: 26S proteasome non-ATPase regulatory subunit 14 (Homo sapiens, UniProt O00487); assay: inhibition of proteasome subunit RPN11 – biochemical, fluorescence polarization, uHTS hits, confirmation (AID 602368); assay type: functional
26S proteasome non-ATPase regulatory subunit 14, sequence (O00487 whole entry): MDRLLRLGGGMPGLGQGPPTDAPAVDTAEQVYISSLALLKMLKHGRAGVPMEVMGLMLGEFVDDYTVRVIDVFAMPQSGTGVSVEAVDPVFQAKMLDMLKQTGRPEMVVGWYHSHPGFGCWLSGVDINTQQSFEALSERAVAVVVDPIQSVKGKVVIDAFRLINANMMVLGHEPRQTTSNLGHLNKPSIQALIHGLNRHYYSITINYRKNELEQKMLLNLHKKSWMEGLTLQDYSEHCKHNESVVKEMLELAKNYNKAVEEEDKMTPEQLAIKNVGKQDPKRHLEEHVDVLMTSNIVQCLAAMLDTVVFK

Prothrombin = Prothrombin (Bos taurus, UniProt P00735); assay: thrombin inhibition, dose response, biochemical, fluorescence polarization, uHTS hits (AID 602369); assay type: functional
Aminopeptidase N = target: T4, Aminopeptidase N (Plasmodium falciparum FcB1/Columbia, UniProt O96935); assay: P. falciparum M1AAP inhibitors, biochemical, fluorogenic H-Leu-NHMec substrate, 1536-well (AID 1445); design: species or system Plasmodium falciparum 3D7, 3D7
T4 sequence (O96935 whole entry): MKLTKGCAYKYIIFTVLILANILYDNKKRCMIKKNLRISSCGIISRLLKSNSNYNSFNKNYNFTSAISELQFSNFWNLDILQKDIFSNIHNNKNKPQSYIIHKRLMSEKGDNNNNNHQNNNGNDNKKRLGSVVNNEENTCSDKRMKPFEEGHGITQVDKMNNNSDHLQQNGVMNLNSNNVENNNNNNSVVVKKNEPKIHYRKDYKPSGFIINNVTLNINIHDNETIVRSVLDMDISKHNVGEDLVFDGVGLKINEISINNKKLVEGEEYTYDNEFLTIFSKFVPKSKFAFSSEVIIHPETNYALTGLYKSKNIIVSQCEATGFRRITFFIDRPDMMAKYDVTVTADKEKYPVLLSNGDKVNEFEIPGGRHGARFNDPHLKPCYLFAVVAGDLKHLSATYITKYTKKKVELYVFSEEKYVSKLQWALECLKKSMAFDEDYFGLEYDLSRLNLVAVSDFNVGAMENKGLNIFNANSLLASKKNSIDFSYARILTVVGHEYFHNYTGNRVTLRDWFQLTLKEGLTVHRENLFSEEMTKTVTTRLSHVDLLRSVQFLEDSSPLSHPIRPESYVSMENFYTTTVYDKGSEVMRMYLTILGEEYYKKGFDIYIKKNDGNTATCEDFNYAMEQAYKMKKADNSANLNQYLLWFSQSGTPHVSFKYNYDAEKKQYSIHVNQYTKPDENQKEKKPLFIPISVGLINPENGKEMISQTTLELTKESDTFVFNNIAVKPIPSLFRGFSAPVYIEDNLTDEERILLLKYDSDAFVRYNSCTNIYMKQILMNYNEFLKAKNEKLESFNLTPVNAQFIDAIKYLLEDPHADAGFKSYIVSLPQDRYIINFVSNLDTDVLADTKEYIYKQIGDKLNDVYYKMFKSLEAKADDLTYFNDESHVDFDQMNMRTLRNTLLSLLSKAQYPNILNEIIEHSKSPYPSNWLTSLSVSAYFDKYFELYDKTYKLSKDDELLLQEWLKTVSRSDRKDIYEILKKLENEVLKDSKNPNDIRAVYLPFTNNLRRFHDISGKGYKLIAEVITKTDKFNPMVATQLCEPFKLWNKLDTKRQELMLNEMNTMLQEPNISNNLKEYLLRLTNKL

Nonstructural protein 1 = Nonstructural protein 1 (Influenza A virus, UniProt Q194T2); assay type: functional, Influenza A virus (A/California/07/2009(H1N1))
Nonstructural protein 1, sequence (Q194T2 whole entry): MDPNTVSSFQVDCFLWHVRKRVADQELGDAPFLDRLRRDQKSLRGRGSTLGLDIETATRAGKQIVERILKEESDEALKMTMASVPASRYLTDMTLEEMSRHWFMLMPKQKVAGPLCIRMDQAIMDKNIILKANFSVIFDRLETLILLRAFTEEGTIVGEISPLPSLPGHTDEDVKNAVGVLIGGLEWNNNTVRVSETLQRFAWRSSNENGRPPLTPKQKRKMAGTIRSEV

[14] = target: Matrix metalloproteinase-14 (Homo sapiens, UniProt P50281); assay: Dose Response confirmation of uHTS hits for a small molecule inhibitors of MT1-MMP activation in a fluorescence assay set 1.; assay type: functional
Large T antigen = Large T antigen (Simian virus 40, UniProt P03070); assay type: functional, Betapolyomavirus macacae;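 note: Confirmatory-stage PubChem screen for compounds that inhibit SV40 T antigen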
Large T antigen, sequence (P03070 whole entry): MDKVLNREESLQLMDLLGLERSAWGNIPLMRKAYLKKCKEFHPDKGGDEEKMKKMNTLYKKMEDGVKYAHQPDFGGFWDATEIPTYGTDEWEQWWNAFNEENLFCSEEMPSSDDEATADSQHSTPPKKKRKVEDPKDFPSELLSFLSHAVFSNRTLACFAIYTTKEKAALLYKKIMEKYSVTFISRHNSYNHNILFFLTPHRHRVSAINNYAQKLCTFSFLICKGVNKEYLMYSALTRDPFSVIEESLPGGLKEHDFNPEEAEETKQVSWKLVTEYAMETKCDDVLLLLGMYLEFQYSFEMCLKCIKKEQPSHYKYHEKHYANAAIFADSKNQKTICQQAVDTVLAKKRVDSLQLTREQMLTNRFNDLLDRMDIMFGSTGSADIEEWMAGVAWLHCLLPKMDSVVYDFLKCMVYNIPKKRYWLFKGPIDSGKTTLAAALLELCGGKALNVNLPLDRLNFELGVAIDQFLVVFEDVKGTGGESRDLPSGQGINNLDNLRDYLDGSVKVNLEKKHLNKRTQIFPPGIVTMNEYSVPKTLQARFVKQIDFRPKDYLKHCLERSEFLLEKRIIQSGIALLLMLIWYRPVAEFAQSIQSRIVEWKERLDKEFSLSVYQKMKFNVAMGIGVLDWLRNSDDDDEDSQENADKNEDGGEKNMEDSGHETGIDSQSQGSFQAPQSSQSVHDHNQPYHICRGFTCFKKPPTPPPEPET

[15] = target: T5, Replicative DNA helicase DnaB (Mycobacterium tuberculosis, UniProt P9WMR3); assay: DnaB intein splicing inhibitors, dose response, biochemical, cell-free fluorescence (AID 449749); assay type: functional
T5 sequence (P9WMR3 whole entry): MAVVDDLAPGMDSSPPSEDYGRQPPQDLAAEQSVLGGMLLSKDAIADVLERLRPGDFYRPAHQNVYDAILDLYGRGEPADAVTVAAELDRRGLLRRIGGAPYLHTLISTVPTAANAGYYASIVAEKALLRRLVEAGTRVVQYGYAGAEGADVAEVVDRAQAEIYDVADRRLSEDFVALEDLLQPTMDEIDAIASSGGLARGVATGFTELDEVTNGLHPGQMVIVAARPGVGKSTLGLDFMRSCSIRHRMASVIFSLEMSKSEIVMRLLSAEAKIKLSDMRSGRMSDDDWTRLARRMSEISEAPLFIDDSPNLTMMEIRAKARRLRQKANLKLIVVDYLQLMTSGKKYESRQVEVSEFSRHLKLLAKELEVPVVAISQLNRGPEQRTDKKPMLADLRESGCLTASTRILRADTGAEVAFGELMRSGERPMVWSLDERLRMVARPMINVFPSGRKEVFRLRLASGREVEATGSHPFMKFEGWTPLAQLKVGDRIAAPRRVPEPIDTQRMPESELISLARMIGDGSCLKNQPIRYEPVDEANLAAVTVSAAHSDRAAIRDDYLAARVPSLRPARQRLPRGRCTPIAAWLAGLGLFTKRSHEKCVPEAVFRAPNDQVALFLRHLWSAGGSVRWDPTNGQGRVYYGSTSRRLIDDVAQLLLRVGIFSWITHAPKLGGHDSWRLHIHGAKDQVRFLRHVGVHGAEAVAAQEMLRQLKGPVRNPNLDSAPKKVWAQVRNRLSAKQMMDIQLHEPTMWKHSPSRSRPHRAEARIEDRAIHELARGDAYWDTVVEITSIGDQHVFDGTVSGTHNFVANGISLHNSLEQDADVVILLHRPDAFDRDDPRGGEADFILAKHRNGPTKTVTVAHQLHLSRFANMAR

[16] = THP-1 cell cytotoxicity, dose response, cytotoxicity control for Vif-APOBEC3G degradation inhibitor project, THP-1 cells (AID 1117359); assay type: functional; conditions: Human immunodeficiency virus 1, THP-1
[17] = target: 72 kDa type IV collagenase (Homo sapiens, UniProt P08253); assay: Dose Response validation of uHTS RPN11 inhibitor hits using a MMP-2 Fluorescence assay.; assay type: functional
72 kDa type IV collagenase, sequence (P08253 whole entry): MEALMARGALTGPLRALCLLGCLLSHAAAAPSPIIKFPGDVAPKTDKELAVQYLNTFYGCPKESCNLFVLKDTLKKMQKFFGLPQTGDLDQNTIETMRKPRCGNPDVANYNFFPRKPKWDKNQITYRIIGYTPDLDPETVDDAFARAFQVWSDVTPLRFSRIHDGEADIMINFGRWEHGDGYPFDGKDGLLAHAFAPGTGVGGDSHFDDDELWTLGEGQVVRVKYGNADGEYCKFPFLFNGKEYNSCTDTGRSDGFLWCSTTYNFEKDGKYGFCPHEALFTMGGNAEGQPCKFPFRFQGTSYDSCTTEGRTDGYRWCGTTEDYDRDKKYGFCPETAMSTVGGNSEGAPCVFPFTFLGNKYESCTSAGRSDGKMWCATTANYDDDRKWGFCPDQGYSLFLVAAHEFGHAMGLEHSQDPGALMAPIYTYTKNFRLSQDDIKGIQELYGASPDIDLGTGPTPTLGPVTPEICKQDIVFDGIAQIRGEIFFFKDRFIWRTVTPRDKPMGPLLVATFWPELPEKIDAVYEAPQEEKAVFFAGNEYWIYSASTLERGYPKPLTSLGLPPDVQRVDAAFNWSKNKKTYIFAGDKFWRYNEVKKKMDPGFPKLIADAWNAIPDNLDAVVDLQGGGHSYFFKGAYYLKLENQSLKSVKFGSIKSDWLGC

[18] = target: T6, Low molecular weight phosphotyrosine protein phosphatase (Homo sapiens, UniProt P24666); assay: LMPTP phosphatase inhibitors, dose response, biochemical, OMFP substrate, fluorescence intensity, set 2 (AID 743307); assay type: functional
T6 sequence (P24666 whole entry): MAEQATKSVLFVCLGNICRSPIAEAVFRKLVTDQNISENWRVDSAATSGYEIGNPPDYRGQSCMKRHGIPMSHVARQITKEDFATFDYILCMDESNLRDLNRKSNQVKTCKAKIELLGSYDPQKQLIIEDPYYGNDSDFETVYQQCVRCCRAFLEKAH

[19] = target: T6, Low molecular weight phosphotyrosine protein phosphatase; assay: LMPTP phosphatase inhibitors, colorimetric pNPP readout, dose response, orthogonal assay, biochemical, absorbance, pNPP substrate, LMPTP-A isoform, set 2 (AID 743308); assay type: functional

Protein Tat, sequence (P04608 whole entry): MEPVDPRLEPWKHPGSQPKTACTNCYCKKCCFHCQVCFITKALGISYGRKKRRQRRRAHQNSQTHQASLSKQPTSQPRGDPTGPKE

COC(=O)/C(=C(/F)SCC(C)=O)C(F)(F)F
IC50 (Protein Tat): > 100 µM (active) | EC50 (cells [1]): > 350 µM (not active) | EC50 (cells [2]): > 350 µM (not active)

CC(=NNC(=O)c1ccc(O)cc1)c1ccc2c(c1)Nc1ccccc1S2
IC50 (NADPH oxidase 1): 0.382 µM (active)

COc1ccc(CC(=O)Nc2nc(C)cs2)cc1OC
IC50 [3]: 27.9 µM (not active)

COc1cccc(-c2cc3nc4c(c(NCC(C)(C)CN(C)C)n3n2)CCCC4)c1
IC50 (cells [4]): 19.2 µM (active) | CC50 [5]: 28.9 µM (active) | EC50 [6]: 0.487 µM (active) | CC50 [7]: 34.2 µM (active) | EC50 [8]: 0.775 µM (active) | IC50 [9]: 2.39 µM (active) | EC50 [10]: > 60 µM (not active)

CCCNC(=O)c1ccc2c(c1)C1C3CCC(C3)C1C(c1ccccc1)N2 (stereo unspecified)
IC50 [11]: > 100 µM (active) | CC50 [12]: > 40 µM (active)

CCN(CC)c1ccc(/C=C2\C(=O)N(c3nnc(C)c(O)n3)N=C2C)cc1
EC50 (Protein RecA): 2.08 µM (active) | IC50 [13]: 49.4 µM (active) | IC50 (Prothrombin): 49.9 µM (active) | IC50 (Aminopeptidase N): 42.6 µM (active) | IC50 (Nonstructural protein 1): 12.6 µM (active) | IC50 [14]: 32.8 µM (inactive) | IC50 (Large T antigen): 54.1 µM (active) | AC50 [15]: 6.6 µM (active) | CC50 [16]: 25.6 µM (active) | IC50 [17]: 96 µM (active)

Cc1ccc2nc(-c3ccccc3)cc(NCCCN3CCCCC3)c2c1
IC50 [18]: > 80 µM (inactive) | IC50 [19]: > 80 µM (inactive)
